Common to all, as to test: Test G Post-Emergence Protocol
Holding throughout (format): in vivo

For assay [1], the system named is barnyardgrass (Echinochloa crus-galli). Conditions: Echinochloa crus-galli, post-emergence, 312 h; for pest or weed control at 15.625 g/ha: 15.625 g ai/ha, evaluated after 13 days (100=total damage to plant; 0=no damage to plant), read-out: Barnyardgrass damage rating; for pest or weed control at 62.5 g/ha: 62.5 g ai/ha, read-out: Barnyardgrass damage rating (100=total damage to plant; 0=no damage to plant); for pest or weed control at 62.5 g/ha / pest or weed control at 250 g/ha: evaluated after 13 days; for pest or weed control at 250 g/ha: 250 g ai/ha, read-out: damage to plant, Barnyardgrass (100=total damage to plant; 0=no damage to plant). The gist of the method:
(§1)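 A glasshouse post-emergence test: 8-day-old plants sprayed at 15.625, 62.5 or 250 g/ha, then grown at 24/16 °C day/night with 14 h light and 65% humidity. Damage rated 13 days later, 0–100.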

Another assay has as its system corn (Zea mays). Conditions: Zea mays, post-emergence, 312 h; for plant injury at 15.625 g/ha: 15.625 g ai/ha, evaluated after 13 days (100=total damage to plant; 0=no damage to plant), read-out: Corn damage rating; for plant injury at 62.5 g/ha: 62.5 g ai/ha, read-out: Corn damage rating (100=total damage to plant; 0=no damage to plant); for plant injury at 62.5 g/ha / plant injury at 250 g/ha: evaluated after 13 days; for plant injury at 250 g/ha: 250 g ai/ha, read-out: damage to plant, Corn (100=total damage to plant; 0=no damage to plant). A digest of the protocol:
as §1

In assay [2] the test system is giant foxtail (Setaria faberi). As to conditions: Setaria faberi, post-emergence, 312 h; for pest or weed control at 15.625 g/ha: 15.625 g ai/ha, evaluated after 13 days (100=total damage to plant; 0=no damage to plant), read-out: Foxtail, Giant damage rating; for pest or weed control at 62.5 g/ha: 62.5 g ai/ha, read-out: Foxtail, Giant damage rating (100=total damage to plant; 0=no damage to plant); for pest or weed control at 62.5 g/ha / pest or weed control at 250 g/ha: evaluated after 13 days; for pest or weed control at 250 g/ha: 250 g ai/ha, read-out: damage to plant, Foxtail, Giant (100=total damage to plant; 0=no damage to plant). The gist of the method:
as §1

The test system of assay [3] is ivy-leaved morning glory (Ipomoea hederacea). Conditions: Ipomoea, post-emergence, 312 h; for pest or weed control at 15.625 g/ha: 15.625 g ai/ha, evaluated after 13 days (100=total damage to plant; 0=no damage to plant), read-out: Morningglory, Ivy-leaved damage rating; for pest or weed control at 62.5 g/ha: 62.5 g ai/ha, read-out: Morningglory, Ivy-leaved damage rating (100=total damage to plant; 0=no damage to plant); for pest or weed control at 62.5 g/ha / pest or weed control at 250 g/ha: evaluated after 13 days; for pest or weed control at 250 g/ha: 250 g ai/ha, read-out: damage to plant, Morningglory, Ivy-leaved (100=total damage to plant; 0=no damage to plant). A digest of the protocol:
as §1

For assay [4], the system named is redroot pigweed (Amaranthus retroflexus). Conditions: Amaranthus retroflexus, post-emergence, 312 h; for pest or weed control at 15.625 g/ha: 15.625 g ai/ha, evaluated after 13 days (100=total damage to plant; 0=no damage to plant), read-out: Pigweed, Redroot damage rating; for pest or weed control at 62.5 g/ha: 62.5 g ai/ha, read-out: Pigweed, Redroot damage rating (100=total damage to plant; 0=no damage to plant); for pest or weed control at 62.5 g/ha / pest or weed control at 250 g/ha: evaluated after 13 days; for pest or weed control at 250 g/ha: 250 g ai/ha, read-out: damage to plant, Pigweed, Redroot (100=total damage to plant; 0=no damage to plant). The gist of the method:
as §1

Assay [5] relates to velvetleaf (Abutilon theophrasti). As to conditions: Abutilon theophrasti, post-emergence, 312 h; for pest or weed control at 15.625 g/ha: 15.625 g ai/ha, evaluated after 13 days (100=total damage to plant; 0=no damage to plant), read-out: Velvetleaf damage rating; for pest or weed control at 62.5 g/ha: 62.5 g ai/ha, read-out: Velvetleaf damage rating (100=total damage to plant; 0=no damage to plant); for pest or weed control at 62.5 g/ha / pest or weed control at 250 g/ha: evaluated after 13 days; for pest or weed control at 250 g/ha: 250 g ai/ha, read-out: damage to plant, Velvetleaf (100=total damage to plant; 0=no damage to plant). The gist of the method:
as §1

Turning to `CN1C[C@@H](c2ccc(C(F)(F)F)cc2)[C@H](C(=O)Nc2ncc(Br)cn2)C1=O` (racemic) [Compound 1514], in assay [1], the pest or weed control at 15.625 g/ha worked out at 0%, the pest or weed control at 62.5 g/ha was determined as 0% and the pest or weed control at 250 g/ha worked out at 0%. In addition, in the assay with corn (Zea mays), the plant injury at 15.625 g/ha was found to be 0%, the plant injury at 62.5 g/ha amounted to 10% and the plant injury at 250 g/ha was determined as 10%. Besides, in assay [2], the pest or weed control at 15.625 g/ha was determined as 0%, the pest or weed control at 62.5 g/ha amounted to 0% and the pest or weed control at 250 g/ha was found to be 0%. In addition, in assay [3], the pest or weed control at 15.625 g/ha came out at 0%, the pest or weed control at 62.5 g/ha was found to be 0% and the pest or weed control at 250 g/ha came to 0%. Also, in assay [4], the pest or weed control at 15.625 g/ha was 0%, the pest or weed control at 62.5 g/ha worked out at 0% and the pest or weed control at 250 g/ha turned out to be 0%. For the same compound, in assay [5], the pest or weed control at 15.625 g/ha was determined as 0%, the pest or weed control at 62.5 g/ha amounted to 0% and the pest or weed control at 250 g/ha turned out to be 0%.
`CN1C[C@H](c2ccc3occc3c2)[C@@H](C(=O)Nc2cccc(F)c2F)C1=O` (racemic) [Compound 1500]: in assay [1], the pest or weed control at 15.625 g/ha is 10%, the pest or weed control at 62.5 g/ha came to 60% and the pest or weed control at 250 g/ha is 60%. For the same compound, in the assay with corn (Zea mays), the plant injury at 15.625 g/ha is 10%, the plant injury at 62.5 g/ha was 10% and the plant injury at 250 g/ha came to 60%. Also, in assay [2], the pest or weed control at 15.625 g/ha came out at 40%, the pest or weed control at 62.5 g/ha stood at 60% and the pest or weed control at 250 g/ha worked out at 60%. For the same compound, in assay [3], the pest or weed control at 15.625 g/ha amounted to 0%, the pest or weed control at 62.5 g/ha is 0% and the pest or weed control at 250 g/ha stood at 10%. In assay [4], the pest or weed control at 15.625 g/ha was 0%, the pest or weed control at 62.5 g/ha amounted to 0% and the pest or weed control at 250 g/ha was found to be 0%. In addition, in assay [5], the pest or weed control at 15.625 g/ha worked out at 0%, the pest or weed control at 62.5 g/ha worked out at 0% and the pest or weed control at 250 g/ha was found to be 20%.
Regarding `CN1C[C@@H](c2ccc(C(F)(F)F)cc2)[C@H](C(=O)Nc2ccno2)C1=O` (racemic) [Compound 1513], in assay [1], the pest or weed control at 15.625 g/ha worked out at 0%, the pest or weed control at 62.5 g/ha worked out at 0% and the pest or weed control at 250 g/ha turned out to be 0%. In the assay with corn (Zea mays), the plant injury at 15.625 g/ha worked out at 0%, the plant injury at 62.5 g/ha is 0% and the plant injury at 250 g/ha is 0%. In assay [2], the pest or weed control at 15.625 g/ha amounted to 0%, the pest or weed control at 62.5 g/ha came to 0% and the pest or weed control at 250 g/ha was determined as 0%. Moreover, in assay [3], the pest or weed control at 15.625 g/ha was found to be 0%, the pest or weed control at 62.5 g/ha was 0% and the pest or weed control at 250 g/ha came out at 0%. Besides, in assay [4], the pest or weed control at 15.625 g/ha was 0%, the pest or weed control at 62.5 g/ha was 0% and the pest or weed control at 250 g/ha is 0%. Also, in assay [5], the pest or weed control at 15.625 g/ha was found to be 0%, the pest or weed control at 62.5 g/ha came to 0% and the pest or weed control at 250 g/ha stood at 0%.
On to `CN1C[C@@H](c2ccc(C(F)(F)F)cc2)[C@H](C(=O)Nc2cnccc2Cl)C1=O` (racemic) [Compound 1541], for which, in assay [1], the pest or weed control at 15.625 g/ha is 0%, the pest or weed control at 62.5 g/ha came out at 0% and the pest or weed control at 250 g/ha stood at 20%. In the assay on corn (Zea mays), the plant injury at 15.625 g/ha was 0%, the plant injury at 62.5 g/ha was found to be 0% and the plant injury at 250 g/ha was 10%. Also, in assay [2], the pest or weed control at 15.625 g/ha is 0%, the pest or weed control at 62.5 g/ha worked out at 0% and the pest or weed control at 250 g/ha was 50%. In addition, in assay [3], the pest or weed control at 15.625 g/ha stood at 0%, the pest or weed control at 62.5 g/ha was 0% and the pest or weed control at 250 g/ha was determined as 10%. Moreover, in assay [4], the pest or weed control at 15.625 g/ha is 0%, the pest or weed control at 62.5 g/ha was determined as 0% and the pest or weed control at 250 g/ha stood at 20%. Also, in assay [5], the pest or weed control at 15.625 g/ha turned out to be 0%, the pest or weed control at 62.5 g/ha came out at 0% and the pest or weed control at 250 g/ha turned out to be 0%.
As to `CN1C[C@H](c2ccc3c(c2)CCO3)[C@@H](C(=O)Nc2cccc(F)c2F)C1=O` (racemic) [Compound 1499], in assay [1], the pest or weed control at 15.625 g/ha was found to be 50%, the pest or weed control at 62.5 g/ha came out at 60% and the pest or weed control at 250 g/ha was 60%. In the assay with corn (Zea mays), the plant injury at 15.625 g/ha is 10%, the plant injury at 62.5 g/ha came out at 0% and the plant injury at 250 g/ha was found to be 80%. Besides, in assay [2], the pest or weed control at 15.625 g/ha was determined as 60%, the pest or weed control at 62.5 g/ha stood at 60% and the pest or weed control at 250 g/ha was determined as 70%. Besides, in assay [3], the pest or weed control at 15.625 g/ha came to 20%, the pest or weed control at 62.5 g/ha stood at 0% and the pest or weed control at 250 g/ha was determined as 40%. In addition, in assay [4], the pest or weed control at 15.625 g/ha was determined as 0%, the pest or weed control at 62.5 g/ha turned out to be 0% and the pest or weed control at 250 g/ha stood at 0%. In addition, in assay [5], the pest or weed control at 15.625 g/ha was 0%, the pest or weed control at 62.5 g/ha stood at 0% and the pest or weed control at 250 g/ha is 20%.
Consider `CN1C[C@@H](c2ccc(C(F)(F)F)cc2)[C@H](C(=O)Nc2ccccc2)C1=O` (racemic) [Compound 1404], for which, in assay [1], the pest or weed control at 15.625 g/ha came out at 10%, the pest or weed control at 62.5 g/ha came out at 20% and the pest or weed control at 250 g/ha came out at 40%. Moreover, in the assay with corn (Zea mays), the plant injury at 15.625 g/ha is 20%, the plant injury at 62.5 g/ha is 20% and the plant injury at 250 g/ha worked out at 40%. Also, in assay [2], the pest or weed control at 15.625 g/ha is 0%, the pest or weed control at 62.5 g/ha was 50% and the pest or weed control at 250 g/ha turned out to be 70%. For the same compound, in assay [3], the pest or weed control at 15.625 g/ha is 0%, the pest or weed control at 62.5 g/ha is 10% and the pest or weed control at 250 g/ha is 30%. In assay [4], the pest or weed control at 15.625 g/ha is 20%, the pest or weed control at 62.5 g/ha was determined as 40% and the pest or weed control at 250 g/ha is 30%. For the same compound, in assay [5], the pest or weed control at 15.625 g/ha was 10%, the pest or weed control at 62.5 g/ha amounted to 20% and the pest or weed control at 250 g/ha came out at 20%.
Regarding `CN1C[C@@H](c2ccc(C(F)(F)F)cc2)[C@H](C(=O)Nc2cc[nH]n2)C1=O` (racemic) [Compound 1533], the pest or weed control at 15.625 g/ha in assay [1], in assay [2], in assay [3], in assay [4] and in assay [5] was 0% each time. Further, the pest or weed control at 62.5 g/ha in assay [1], in assay [2], in assay [3], in assay [4] and in assay [5] was 0% throughout. Also, the pest or weed control at 250 g/ha in assay [1], in assay [2], in assay [3], in assay [4] and in assay [5] was 0% each time. The plant injury at 15.625 g/ha with corn (Zea mays) is 0%. Moreover, the plant injury at 62.5 g/ha in the assay on corn (Zea mays) came out at 0%. Further, in the assay on corn (Zea mays), the plant injury at 250 g/ha was determined as 0%.

The record behind these values is patent publication US12077503B2, “Substituted cyclic amides and their use as herbicides” (FMC CORPORATION, priority 2015, dated 2024).
